# Source: PMC11233931, “Remodeling tumor‐associated macrophage for anti‐cancer effects by rational design of irreversible inhibition of mitogen‐activated protein kinase‐activated protein kinase 2” (MedComm, 2024)
# What was measured:
# Assay in all cases: Eurofins kinase selectivity profile against 380 other human recombinant kinases (Table S2)
# Assay type in all cases: biochemical
# [1] = target: T1, 380 human recombinant protein kinases (Homo sapiens, UniProt O60285); conditions: ARK5(h), read-out: Inhibition rate
# T1 construct: purchased Eurofins (Celle Lévescault)
# T1 sequence (O60285 1-661): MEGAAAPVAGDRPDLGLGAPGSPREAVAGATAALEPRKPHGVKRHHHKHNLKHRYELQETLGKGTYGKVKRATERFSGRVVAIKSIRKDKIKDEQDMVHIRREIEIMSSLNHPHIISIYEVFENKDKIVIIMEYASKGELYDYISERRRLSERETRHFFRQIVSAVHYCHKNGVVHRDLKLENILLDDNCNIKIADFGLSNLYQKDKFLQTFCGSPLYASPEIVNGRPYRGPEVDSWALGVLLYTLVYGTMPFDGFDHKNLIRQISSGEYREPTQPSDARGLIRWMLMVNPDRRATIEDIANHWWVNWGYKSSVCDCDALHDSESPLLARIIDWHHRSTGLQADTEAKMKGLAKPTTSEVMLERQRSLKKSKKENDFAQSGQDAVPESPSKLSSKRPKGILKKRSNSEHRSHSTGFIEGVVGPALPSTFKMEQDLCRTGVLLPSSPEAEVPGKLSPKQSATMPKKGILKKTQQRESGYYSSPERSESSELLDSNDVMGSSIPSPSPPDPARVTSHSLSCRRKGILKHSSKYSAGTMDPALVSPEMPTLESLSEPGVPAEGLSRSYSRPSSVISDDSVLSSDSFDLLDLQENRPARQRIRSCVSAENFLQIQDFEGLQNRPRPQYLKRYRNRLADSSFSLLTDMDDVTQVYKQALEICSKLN
# Method in brief: (§1)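 The inhibitor was sent to a contract lab and screened at various concentrations against 380 human recombinant protein kinases. This served as a counter-screen for MK2 specificity.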
# [2] = target: T2, 380 human recombinant protein kinases (Homo sapiens, UniProt Q9HCP0); conditions: CK1γ1(h), read-out: Inhibition rate
# T2 construct: purchased Eurofins (Celle Lévescault)
# T2 sequence (Q9HCP0 whole entry): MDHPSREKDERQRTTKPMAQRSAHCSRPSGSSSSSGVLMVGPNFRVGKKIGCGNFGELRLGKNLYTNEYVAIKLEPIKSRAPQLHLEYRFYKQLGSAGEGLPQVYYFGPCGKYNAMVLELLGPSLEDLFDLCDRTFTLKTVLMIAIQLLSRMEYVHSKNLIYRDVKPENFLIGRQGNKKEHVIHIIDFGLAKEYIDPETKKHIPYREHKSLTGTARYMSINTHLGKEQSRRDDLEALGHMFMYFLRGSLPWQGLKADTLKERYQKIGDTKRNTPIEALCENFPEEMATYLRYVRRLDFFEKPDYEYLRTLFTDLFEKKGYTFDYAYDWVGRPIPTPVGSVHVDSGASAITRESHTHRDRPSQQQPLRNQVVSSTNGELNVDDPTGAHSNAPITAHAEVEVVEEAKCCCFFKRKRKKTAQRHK
# Method in brief: as §1
# [3] = target: T3, 380 human recombinant protein kinases (Homo sapiens, UniProt Q13131); conditions: AMPKα1(h), read-out: Inhibition rate
# T3 construct: purchased Eurofins (Celle Lévescault)
# T3 sequence (Q13131 whole entry): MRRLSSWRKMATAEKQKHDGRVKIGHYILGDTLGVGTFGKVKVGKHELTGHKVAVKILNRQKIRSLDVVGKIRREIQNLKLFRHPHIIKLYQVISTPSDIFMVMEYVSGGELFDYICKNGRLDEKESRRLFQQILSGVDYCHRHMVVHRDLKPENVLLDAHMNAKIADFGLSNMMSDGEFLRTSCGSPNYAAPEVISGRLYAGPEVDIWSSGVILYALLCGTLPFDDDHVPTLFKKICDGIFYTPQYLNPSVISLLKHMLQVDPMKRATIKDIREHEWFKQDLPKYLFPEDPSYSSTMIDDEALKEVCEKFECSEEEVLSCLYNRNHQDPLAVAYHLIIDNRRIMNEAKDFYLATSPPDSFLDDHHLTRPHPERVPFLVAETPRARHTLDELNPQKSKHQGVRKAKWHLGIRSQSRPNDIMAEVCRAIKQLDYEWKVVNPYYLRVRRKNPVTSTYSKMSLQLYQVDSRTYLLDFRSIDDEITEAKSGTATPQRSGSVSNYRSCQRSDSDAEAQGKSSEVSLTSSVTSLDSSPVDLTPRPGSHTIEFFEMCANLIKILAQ
# Method in brief: as §1
# [4] = target: T4, 380 human recombinant protein kinases (Homo sapiens, UniProt Q96J92); conditions: WNK4(h), read-out: Inhibition rate (%)
# T4 construct: purchased Eurofins (Celle Lévescault)
# Method in brief: as §1
# [5] = target: T5, 380 human recombinant protein kinases (Homo sapiens, UniProt Q96SB4); conditions: SRPK1(h), read-out: Inhibition rate (%)
# T5 construct: purchased Eurofins (Celle Lévescault)
# T5 sequence (Q96SB4 whole entry): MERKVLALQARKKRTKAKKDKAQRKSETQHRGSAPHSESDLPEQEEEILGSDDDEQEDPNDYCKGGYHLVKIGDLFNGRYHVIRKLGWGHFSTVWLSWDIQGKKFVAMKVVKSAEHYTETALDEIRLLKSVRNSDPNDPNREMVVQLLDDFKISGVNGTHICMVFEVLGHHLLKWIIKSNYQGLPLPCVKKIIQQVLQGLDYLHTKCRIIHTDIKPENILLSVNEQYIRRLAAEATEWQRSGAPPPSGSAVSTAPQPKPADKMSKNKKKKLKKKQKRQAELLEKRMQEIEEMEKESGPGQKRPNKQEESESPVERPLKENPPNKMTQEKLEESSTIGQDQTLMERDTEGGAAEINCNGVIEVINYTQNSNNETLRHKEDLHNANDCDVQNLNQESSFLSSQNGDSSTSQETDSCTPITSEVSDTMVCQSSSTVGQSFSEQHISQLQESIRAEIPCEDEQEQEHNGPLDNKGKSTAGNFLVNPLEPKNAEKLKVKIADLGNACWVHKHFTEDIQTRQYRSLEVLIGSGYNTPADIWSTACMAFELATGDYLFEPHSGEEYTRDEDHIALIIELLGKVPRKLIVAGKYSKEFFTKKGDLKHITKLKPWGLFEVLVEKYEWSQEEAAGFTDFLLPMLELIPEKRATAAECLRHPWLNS
# Method in brief: as §1
# [6] = target: T6, 380 human recombinant protein kinases (Homo sapiens, UniProt P15056); conditions: B-Raf(h), read-out: Inhibition rate
# T6 construct: purchased Eurofins (Celle Lévescault)
# T6 sequence (P15056 whole entry): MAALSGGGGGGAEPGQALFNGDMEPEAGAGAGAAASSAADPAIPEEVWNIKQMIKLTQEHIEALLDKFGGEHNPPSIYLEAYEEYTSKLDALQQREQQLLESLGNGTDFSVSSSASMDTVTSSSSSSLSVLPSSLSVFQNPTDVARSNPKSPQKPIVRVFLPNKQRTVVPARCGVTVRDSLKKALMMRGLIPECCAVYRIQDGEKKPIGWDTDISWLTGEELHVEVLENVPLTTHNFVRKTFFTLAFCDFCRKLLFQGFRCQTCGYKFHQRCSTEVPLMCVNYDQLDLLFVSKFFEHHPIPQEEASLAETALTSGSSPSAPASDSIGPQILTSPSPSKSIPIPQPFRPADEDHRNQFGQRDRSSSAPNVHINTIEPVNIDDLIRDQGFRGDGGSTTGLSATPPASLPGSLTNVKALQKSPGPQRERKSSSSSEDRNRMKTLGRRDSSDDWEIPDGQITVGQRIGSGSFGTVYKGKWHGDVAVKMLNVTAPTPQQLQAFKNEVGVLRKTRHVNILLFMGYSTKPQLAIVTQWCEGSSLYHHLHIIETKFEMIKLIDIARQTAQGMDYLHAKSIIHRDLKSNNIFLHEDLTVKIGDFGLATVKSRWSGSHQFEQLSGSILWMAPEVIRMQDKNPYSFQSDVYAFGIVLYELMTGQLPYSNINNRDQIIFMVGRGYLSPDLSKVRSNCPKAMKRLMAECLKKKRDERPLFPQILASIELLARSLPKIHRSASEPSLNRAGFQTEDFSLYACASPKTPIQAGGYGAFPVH
# Method in brief: as §1
# [7] = target: T7, 380 human recombinant protein kinases (Homo sapiens, UniProt Q06187); conditions: BTK(h), read-out: Inhibition rate
# T7 construct: purchased Eurofins (Celle Lévescault)
# T7 sequence (Q06187 whole entry): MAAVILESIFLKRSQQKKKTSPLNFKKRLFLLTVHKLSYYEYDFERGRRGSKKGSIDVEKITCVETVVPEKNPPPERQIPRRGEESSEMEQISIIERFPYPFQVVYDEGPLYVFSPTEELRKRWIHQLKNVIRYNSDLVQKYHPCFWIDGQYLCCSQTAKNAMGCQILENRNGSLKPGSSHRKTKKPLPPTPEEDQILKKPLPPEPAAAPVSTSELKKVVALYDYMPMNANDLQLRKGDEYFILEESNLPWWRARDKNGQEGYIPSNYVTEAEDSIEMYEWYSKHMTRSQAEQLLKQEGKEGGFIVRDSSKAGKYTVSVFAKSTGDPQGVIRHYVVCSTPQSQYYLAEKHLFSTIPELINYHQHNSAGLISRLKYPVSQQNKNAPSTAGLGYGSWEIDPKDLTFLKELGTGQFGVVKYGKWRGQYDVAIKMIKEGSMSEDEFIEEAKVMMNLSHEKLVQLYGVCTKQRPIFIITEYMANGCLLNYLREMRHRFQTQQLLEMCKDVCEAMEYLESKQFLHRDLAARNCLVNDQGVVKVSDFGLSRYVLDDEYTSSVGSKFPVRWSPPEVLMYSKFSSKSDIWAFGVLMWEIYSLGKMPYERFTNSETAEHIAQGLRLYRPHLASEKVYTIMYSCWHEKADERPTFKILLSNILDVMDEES
# Method in brief: as §1
# [8] = target: T8, 380 human recombinant protein kinases (Homo sapiens, UniProt Q96GD4); conditions: Aurora-B(h), read-out: Inhibition rate
# T8 construct: purchased Eurofins (Celle Lévescault)
# T8 sequence (Q96GD4 whole entry): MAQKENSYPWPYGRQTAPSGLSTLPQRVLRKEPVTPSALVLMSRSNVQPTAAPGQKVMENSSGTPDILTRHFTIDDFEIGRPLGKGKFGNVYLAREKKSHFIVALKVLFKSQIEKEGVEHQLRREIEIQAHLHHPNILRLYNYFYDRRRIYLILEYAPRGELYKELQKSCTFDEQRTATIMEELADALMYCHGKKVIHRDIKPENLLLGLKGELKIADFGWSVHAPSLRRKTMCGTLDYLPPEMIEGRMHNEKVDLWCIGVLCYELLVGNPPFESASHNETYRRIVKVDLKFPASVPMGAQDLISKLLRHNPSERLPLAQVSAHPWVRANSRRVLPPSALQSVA
# Method in brief: as §1
# [9] = target: T9, 380 human recombinant protein kinases (Homo sapiens, UniProt Q14289); conditions: Pyk2(h), read-out: Inhibition rate
# T9 construct: purchased Eurofins (Celle Lévescault)
# T9 sequence (Q14289 whole entry): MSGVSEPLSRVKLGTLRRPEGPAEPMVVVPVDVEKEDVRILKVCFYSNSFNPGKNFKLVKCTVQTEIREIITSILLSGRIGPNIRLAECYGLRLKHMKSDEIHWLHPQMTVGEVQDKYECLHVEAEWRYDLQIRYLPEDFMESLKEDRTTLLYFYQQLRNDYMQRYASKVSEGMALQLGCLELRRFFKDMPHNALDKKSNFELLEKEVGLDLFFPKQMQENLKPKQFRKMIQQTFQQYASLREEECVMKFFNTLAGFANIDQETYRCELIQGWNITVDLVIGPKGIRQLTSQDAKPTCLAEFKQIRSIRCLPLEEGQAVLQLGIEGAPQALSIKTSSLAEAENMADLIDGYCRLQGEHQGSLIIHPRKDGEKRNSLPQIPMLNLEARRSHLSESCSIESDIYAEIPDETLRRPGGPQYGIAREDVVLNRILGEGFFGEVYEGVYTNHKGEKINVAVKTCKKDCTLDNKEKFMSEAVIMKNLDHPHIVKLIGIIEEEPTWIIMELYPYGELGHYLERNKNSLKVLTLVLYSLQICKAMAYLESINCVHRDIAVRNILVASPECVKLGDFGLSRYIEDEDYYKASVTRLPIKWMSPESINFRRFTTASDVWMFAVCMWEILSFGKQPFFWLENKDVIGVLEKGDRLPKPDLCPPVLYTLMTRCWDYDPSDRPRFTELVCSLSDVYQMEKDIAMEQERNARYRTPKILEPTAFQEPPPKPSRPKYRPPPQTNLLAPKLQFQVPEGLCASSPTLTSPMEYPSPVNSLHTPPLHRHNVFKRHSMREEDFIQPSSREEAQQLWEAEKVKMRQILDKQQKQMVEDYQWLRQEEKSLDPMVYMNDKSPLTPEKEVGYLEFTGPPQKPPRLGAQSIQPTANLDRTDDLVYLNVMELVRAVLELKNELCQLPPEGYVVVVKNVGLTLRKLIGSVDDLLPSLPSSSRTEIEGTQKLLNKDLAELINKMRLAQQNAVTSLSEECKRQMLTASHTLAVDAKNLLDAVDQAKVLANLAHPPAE
# Method in brief: as §1
# [10] = target: T10, 380 human recombinant protein kinases (Homo sapiens, UniProt Q96NX5); conditions: CaMKIγ(h), read-out: Inhibition rate
# T10 construct: purchased Eurofins (Celle Lévescault)
# T10 sequence (Q96NX5 whole entry): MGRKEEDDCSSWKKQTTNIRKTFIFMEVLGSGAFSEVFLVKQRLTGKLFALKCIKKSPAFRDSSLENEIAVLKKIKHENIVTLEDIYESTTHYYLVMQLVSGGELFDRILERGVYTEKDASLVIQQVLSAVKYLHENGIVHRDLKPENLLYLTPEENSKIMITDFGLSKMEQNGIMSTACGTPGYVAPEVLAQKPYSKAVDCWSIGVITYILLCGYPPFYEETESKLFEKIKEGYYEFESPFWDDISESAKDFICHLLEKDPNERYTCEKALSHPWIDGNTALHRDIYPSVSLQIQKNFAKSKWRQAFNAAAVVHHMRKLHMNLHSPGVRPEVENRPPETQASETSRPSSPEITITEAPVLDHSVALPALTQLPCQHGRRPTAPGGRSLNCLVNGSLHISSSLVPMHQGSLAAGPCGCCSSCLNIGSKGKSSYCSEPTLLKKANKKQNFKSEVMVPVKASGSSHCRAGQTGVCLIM
# Method in brief: as §1
smiles,measurement,setting,value
C=CC(=O)Nc1cc(-c2cc(-c3cc4c([nH]3)CCNC4=O)ccn2)ccc1OC(F)(F)F [compound 11],inhibition at 0.01 µM,[1]; 10 nM,-2%
same,inhibition at 0.1 µM,[1]; 100 nM,14%
same,inhibition at 1 µM,[1]; 1000 nM,28%
same,inhibition at 0.01 µM,[2]; 10 nM,0%
same,inhibition at 0.1 µM,[2]; 100 nM,14%
same,inhibition at 1 µM,[2]; 1000 nM,56%
same,inhibition at 0.01 µM,[3]; 10 nM,6%
same,inhibition at 0.1 µM,[3]; 100 nM,20%
same,inhibition at 1 µM,[3]; 1000 nM,65%
same,inhibition at 0.01 µM,[4]; 10 nM,6%
same,inhibition at 0.1 µM,[4]; 100 nM,6%
same,inhibition at 1 µM,[4]; 1000 nM,3%
same,inhibition at 0.01 µM,[5]; 10 nM,6%
same,inhibition at 0.1 µM,[5]; 100 nM,13%
same,inhibition at 1 µM,[5]; 1000 nM,22%
same,inhibition at 0.01 µM,[6]; 10 nM,-7%
same,inhibition at 0.1 µM,[6]; 100 nM,-7%
same,inhibition at 1 µM,[6]; 1000 nM,4%
same,inhibition at 0.01 µM,[7]; 10 nM,-4%
same,inhibition at 0.1 µM,[7]; 100 nM,10%
same,inhibition at 1 µM,[7]; 1000 nM,17%
same,inhibition at 0.01 µM,[8]; 10 nM,4%
same,inhibition at 0.1 µM,[8]; 100 nM,19%
same,inhibition at 1 µM,[8]; 1000 nM,27%
same,inhibition at 0.01 µM,[9]; 10 nM,-11%
same,inhibition at 0.1 µM,[9]; 100 nM,-5%
same,inhibition at 1 µM,[9]; 1000 nM,6%
same,inhibition at 0.01 µM,[10]; 10 nM,-9%
same,inhibition at 0.1 µM,[10]; 100 nM,-14%
same,inhibition at 1 µM,[10]; 1000 nM,-15%
